Measured values: patent EP0278940A2, “Hepatitis B virus surface antigens and hybrid antigens containing them” (SMITHKLINE BIOLOGICALS S.A., priority 1987, dated 1988)

Test system: synthetic preS2 peptide
Assay: Immunogenicity in mice: anti-preS2 antibodies by solid phase RIA on synthetic preS2 peptide
Type: in vivo, mice: Balb/c (H₂-d) and NMRl (H₂-Q)
Details: Balb/c and NMRl mice, I.P., one month, pooled sera
Protocol: The immunogenicity of particles prepared from extracts of cells containing pRIT12660 (Example 16) was studied in 2 strains of mice: Balb/c (H₂-d) and NMRl (H₂-Q). The particles were absorbed on Al(OH)₃ before injection and the mice (5 mice/group) were injected intraperitoneally (I.P.) with 0.3 µg of RIA reacting material. One month after the immunization, the mice were bled and the sera from the mice of the same group were pooled. The titer of anti-S antibodies was determined in the pools by using the AUSAB kit (Abbott Labs) and the WHO reference. The titers were converted in mIU/ml by using the Hollinger formula (Hollinger et al., in Szmuness et al., eds. Viral Hepatitis, Philadelphia : Franklin Institute Press, 451-466, 1982). The anti-preS2 antibodies were determined using a solid phase assay (RIA) in which the synthetic preS2 peptide given in Example 23, is absorbed on plastic and bound antibodies were detected with a goat anti-mouse IgG labelled with ¹²⁵I. […] PreS determinants enhance the response to the S determinants. This enhancing effect is not shown if the preS2 synthetic peptide is injected together with particles which lack the preS2.

## CSCC[C@H](N)C(=O)N[C@@H](CCC(=O)O)C(=O)N[C@@H](Cc1c[nH]c2ccccc12)C(=O)N[C@@H](CC(N)=O)C(=O)N[C@@H](CO)C(=O)N[C@H](C(=O)N[C@@H](C)C(=O)N[C@@H](Cc1ccccc1)C(=O)N[C@@H](Cc1c[nH]cn1)C(=O)N[C@@H](CCC(N)=O)C(=O)N[C@@H](C)C(=O)N[C@@H](CC(C)C)C(=O)N[C@@H](CCC(N)=O)C(=O)N[C@@H](CC(=O)O)C(=O)N1CCC[C@H]1C(=O)N[C@@H](CCCNC(=N)N)C(=O)N[C@H](C(=O)N[C@@H](CCCNC(=N)N)C(=O)NCC(=O)N[C@@H](CC(C)C)C(=O)N[C@@H](Cc1ccc(O)cc1)C(=O)N[C@@H](CC(C)C)C(=O)N1CCC[C@H]1C(=O)N[C@@H](C)C(=O)NCC(=O)N[C@@H](CS)C(=O)O)C(C)C)[C@@H](C)O [preS2 synthetic peptide]
  induction of anti-preS2 peptide antibodies: unable to elicit anti-preS2 antibodies
